From patent US7399462B2, “Protectant for UV-induced skin damage” (QLT USA, Inc., priority 2002, dated 2008)

Columns and labels:
UV-induced tumors = details: topical; UV induced mouse carcinogenicity model; cited from earlier work
[1] = system: UV-induced skin tumor formation

Structure (SMILES)	Formation of skin tumors compared to untreated or vehicle controls (UV-induced tumors)	Effect on Unbiased Median Weeks to Tumor (in words) ([1]; 600 RBU/week)	Tumor Potency Ratio (≧1 mm Tumor Size), Sexes Combined ([1]; UVR 600 RBU/week, sexes combined, calculated from Unbiased Median Week to Tumor and untreated 600/1200 RBU calibration)
CC1=C(/C=C/C(C)=C/C=C/C(C)=C/C(=O)O)C(C)(C)CCC1 [tretinoin]	promote the formation of skin tumors		
O=C(OOC(=O)c1ccccc1)c1ccccc1 [Benzoyl peroxide]	promote the formation of skin tumors		
Nc1ccc(S(=O)(=O)c2ccc(N)cc2)cc1 [Dapsone, bis(4-aminophenyl)sulfone]		increased the Unbiased Median Weeks to Tumor in a dose-dependent manner	reduced with dapsone application in a dose-dependent manner
